From patent publication US20230255921A1, “COMPOSITION FOR TREATING KCA3.1 CHANNEL-MEDIATED DISEASES COMPRISING PHENYLALKYL CARBAMATE COMPOUND” (CEL[…], priority 2020, published 2023) come the findings set out here.

SMILES strings stand for the structures. Where a name gives a salt, the structure may show the parent alone.

The subject of assay [1] is lung fibrosis induced by bleomycin. Kind of assay: Bleomycin-induced lung fibrosis mouse model. The conditions noted are these: BLM+SF-2 vs BLM group. The format is in vivo, C57BL/6 wild-type mice. The method, then: To confirm the effect of the SF-2 compound according to the present invention on the inhibition of fibrosis, an experiment was performed as follows. First. C57BL/6 wild-type mice (purchased from Orient Bio) were divided into three groups of 6 to 8, and used as a disease-induced group, a drug-administered group, and a normal control. The test mice for each group were treated as follows.
(1) Disease-induced group: Lung fibrosis was induced by injecting 1.5 units of bleomycin into the airways of test mice. In addition, the same amount of distilled water as the SF-2 compound administered to the following drug-administered group was intraperitoneally injected (100 mg/kg) 5 times a week. In the accompanying drawing, bleomycin (BLM) refers to this disease-induced group.
(2) Drug-administered group: 1.5 units of bleomycin was injected into the airways of test mice, and then the SF-2 compound of the present invention was intraperitoneally injected (100 mg/kg) five times a week. In the accompanying drawing, BLM+SF-2 indicates the drug-administered group.
(3) Normal control: The same amount of distilled water as that of bleomycin injected into the disease-induced group was injected into the airways. In addition, the same amount of distilled water as that of the SF-2 compound administered to the drug-administered group was intraperitoneally injected five times a week. In the accompanying drawing, C or Control indicates the normal group.
The mouse models for each group were treated with drugs for 4 weeks in the same way as described above and immediately killed by administering an excess of an anesthetic, and then the lungs were extracted and used in the subsequent test.
(§1) The lung and liver tissues extracted from the mouse model were fixed with a paraformaldehyde solution, and cut to a thickness of 1 to 2 mm. The cut tissue was embedded in paraffin and cut to a thickness of 4 μm, the paraffin was removed with xylene, the xylene was removed with ethanol, and the resultant was washed with tap water, thereby obtaining a paraffinized tissue specimen.
(§2) Tissue immunohistochemistry for collagen, which is a fibrotic marker, in the lung and liver tissues, was performed by Masson's trichrome staining.
(§3) The degrees of mRNA expression of pro-inflammatory or pro-fibrotic agents in lung and liver tissues extracted from the mouse models were measured by real time PCR. RNAs of these tissues were isolated using a TRIzol reagent (Molecular Research Center. Cincinnati, Ohio), and single-stranded cDNA was synthesized using BcaBEST polymerase (Takara Shuzo), followed by performing PCR.

Assay [2] has as its system liver fibrosis induced by a CDAHFD diet. Kind of assay: CDAHFD diet-induced liver fibrosis mouse model. The format is in vivo, C57BL/6 wild-type mice. The conditions noted are these: CDAHFD+SF-2 vs CDAHFD group, 100 mg/kg/day five times a week, 16 weeks. The method, then:
To confirm the therapeutic effect of the SF-2 compound of the present invention on liver inflammation and fibrosis, an experiment was performed as follows. First, C57BL/6 wild-type mice (purchased from Orient Bio) were divided into three groups of 6 to 8, and used as a disease-induced group, a drug-administered group, and a normal control. The test mice for each group were treated as follows.
(1) Drug-induced group: Test mice were fed a CDAHFD diet (choline deficient, L-amino-acid-defined, high-fat diet with 0.1% methionine. A06071302, Research Diets, New Brunswick, N.J.) to induce fatty liver disease and fibrosis. In addition, the same amount of distilled water as that of the SF-2 compound administered to the following drug-administered group five times a week using a zonde (oral tube). In the accompanying drawing, CDAHFD indicates the disease-induced group.
(2) Drug-administered group: The SF-2 compound of the present invention, together with the CDAHFD diet, was administered (100 mg/kg/day) to test mice five times a week. In the accompanying drawing, CDAHFD+SF-2 indicates the drug-administered group.
(3) Normal control: Test mice were fed a normal diet. In addition, the same amount of distilled water as that of the SF-2 compound was administered to the drug-administered group five times a week using a zonde (oral tube). In the accompanying drawing, C or Control indicates the normal group.
The mouse models for each group were treated with drugs for 16 weeks in the same way as described above and immediately killed by administering an excess of an anesthetic, and then the livers were extracted and used in the subsequent test.
as §1, §2, §3

In a further assay the target is KCa3.1 channel (Mus musculus, UniProt O89109). Briefly: Whole-cell patch-clamp KCa3.1 current in cultured fibroblasts. The format is cell-based. On the set-up: host or cells: fibroblasts (ATCC CRL-2795). To be noted: FIG. 1 and FIG. 2. How it is done:
Fibroblasts (CRL-2795: American Type Culture Collection, VA) were cultured in Dulbecco's Modified Eagle Medium (Hyclone, Logan, Utah). All cells were maintained in 5% CO2 under a humid condition at 37° C. The cultured fibroblasts were exposed to pro-inflammatory agents such as lipopolysaccharides (LPS) and a pro-fibrotic agent TGFβ, and the compounds of Chemical Formulas 2 to 8 of the present invention (hereinafter, referred to as SF-2 to SF-8 compounds) for 24 hours, and then anti-inflammatory and anti-fibrotic effects were tested.
Whole cell current through the cell membrane in isolated and cultured single fibroblasts was measured using a patch-clamp technique. A voltage ramp was used to apply voltage to whole-cell voltage clamp cells from −100 mV to +100 mV using a micro-glass electrode, the generated current was amplified using an amplifier (EPC-10, HEKA, Lambrecht, Germany) and then recorded at a sampling rate of 1 to 4 kHz. […]
KCa3.1 current was isolated using the following method. Ina current recorded by injecting 1 μM Ca^2+ into whole-cell voltage clamp cells using a glass electrode and applying 1-ethyl-2-benzimidazolinone (1-EBIO, 100 μM) activating KCa3.1 current, a current inhibited by KCa3.1 channel inhibitor TRAM-34 (10 μM) was determined as the KCa3.1 current, and the recorded current was normalized by division by cell capacitance.

Setting [3] is: lung tissue, 100 mg/kg intraperitoneal five times a week, 4 weeks, FIG. 6.

Sequence of KCa3.1 channel (O89109 whole entry): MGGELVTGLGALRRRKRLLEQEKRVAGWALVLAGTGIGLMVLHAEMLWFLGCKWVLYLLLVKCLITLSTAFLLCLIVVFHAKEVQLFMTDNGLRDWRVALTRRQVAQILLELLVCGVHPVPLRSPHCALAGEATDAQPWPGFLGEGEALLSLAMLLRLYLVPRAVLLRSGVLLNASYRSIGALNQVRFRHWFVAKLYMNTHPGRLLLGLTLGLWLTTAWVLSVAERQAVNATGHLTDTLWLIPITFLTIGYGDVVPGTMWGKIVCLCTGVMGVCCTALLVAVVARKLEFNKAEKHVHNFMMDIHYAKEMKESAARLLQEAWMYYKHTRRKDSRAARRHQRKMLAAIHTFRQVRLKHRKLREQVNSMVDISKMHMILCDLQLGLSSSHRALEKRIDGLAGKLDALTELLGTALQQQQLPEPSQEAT

Turning to `NC(=O)OC[C@H](N)Cc1ccccc1` [SF-2, (R)-2-amino-3-phenyl propylcarbamate hydrochloride], the “fibrosis degree, Masson's trichrome staining of lung tissue” value in assay [1] (intraperitoneal five times a week for 4 weeks, FIG. 5) was “decreased”. For the same compound, in assay [1] (setting [3]), the “mRNA expression level of Col1α” value is on record as “greatly decreased”, the “mRNA expression level of Col3α” value is given as “greatly decreased” and the “mRNA expression level of α-SMA” value is reported as “greatly decreased”. For the same compound, the “degree of blue staining of the liver tissue (Masson's trichrome, collagen fiber)” value in assay [2] (FIG. 7) is “greatly decreased”. Further, in assay [2] (FIG. 8), the “mRNA expression level of Col1α” value is listed as “greatly decreased”, the “mRNA expression level of Col3α” value was “greatly decreased” and the “mRNA expression level of α-SMA” value is “greatly decreased”. Moreover, the “KCa3.1 current activated by Ca2+ and 1-EBIO in cells” value at KCa3.1 channel is on record as “inhibited by SF-2 in a concentration-dependent manner”.
